# Like-named read-outs stand apart in the source and are kept apart here.
# What was measured:
# albumin = target: T1, albumin (Homo sapiens, UniProt P02768); assay: in vitro; type: in vitro ADME; conditions: 37° C., 12.0 μM, read-out: % bound (converted)
# T1 construct: tissue Zen-Bio; host or cells: pooled human whole blood (K2EDTA, 36 donors) and plasma prepared from it
# Experimental: To study the binding kinetics of the albumin-binding maytansinoids in pooled human plasma and pooled human whole blood, the compounds were incubated together with pooled human plasma at 37° C. and samples were taken at specified time points. Remaining albumin-binding maytansinoids were quantitated by HPLC.
# To study the binding kinetics in human whole blood, the blood (K2EDTA, 36 donors, Zen-Bio; 900 μL) was preincubated at 37° C. for 30 min in a heating block. To study the binding kinetics in pooled human plasma, the pooled whole blood was centrifuged (10 min, 1811 g), the supernatant plasma was collected and then preincubated at 37° C. for 30 min.
# The albumin-binding maytansinoid was added to the preincubated whole blood/plasma sample as a 10-fold dilution in PBS of a 1.2 mM stock solution in 2.5% propylene glycol in 10 mM sodium phosphate buffer and 1.48 mM citrate (100 μL) to produce a 12.0 μM solution of the respective albumin-binding maytansinoid. Samples (190 μL) were taken after 15 s, 2 min, 4 min, 8 min and 15 min. The samples were directly added to 760 μL MeCN containing maytansine (5 μg/mL) as an internal standard and vortexed for 1 min. After centrifugation (1 min at 12,044 g) the supernatant (850 μL) was concentrated under high vacuum. The residue was taken up in DMSO/water (1:1 v/v; 95 μL) and then analyzed by RP-HPLC. Percentage of binding was determined by comparison of the area under the curve (AUC) at 220 nm of the albumin-binding maytansinoid relative to a control sample (100% value) in PBS buffer. All experiments were performed in triplicates.
# HPLC method: Phenomenex Kinetex Polar C18, 2.6 μm, 100 Å, 150×4.6 mm; eluent A (95:5 5 mM ammonium acetate: MeCN) and eluent B (5:95 5 mM ammonium acetate: MeCN) eluting with a gradient of eluent B (30% 0-0.5 min, 30-95% 0.5-9.0 min, 95% 11.0 min, 95-30% 11.0-14.5 min, 30% 15.0 min, flow rate=1.0 mL/min). Column oven temperature ambient temperature; autosampler temperature 4° C.; 50 μL of injection volume.
# [1] = test system: human tumor xenograft models; assay: Antitumor activity in human tumor xenograft mice models; type: in vivo; conditions: five human tumor xenograft models in nude mice, i.v. on day 1, 8, 15, and 22
# Description: This included starting tumor volumes in the range of approximately 80-110 mm^3 but also initial starting tumor volumes of up to approximately 400 mm^3. Furthermore, in most cases therapy with albumin-binding maytansinoids 30 and 31 induced long-term remissions and a decrease in Relative Tumor Volume (RTV). […] Experimental procedure and the results in the tumor-bearing mice models are described in detail in Examples 11-19 and FIGS. 3-16.
# Female immunodeficient NMRI nude mice, from Charles River, received unilateral tumor implants subcutaneously in the left flank while under isoflurane anesthesia with human cancer tumors until tumors were palpable and had reached a volume of 80-200 mm^3 (unless otherwise stated).
# Animals were kept in cages, the temperature inside the cages maintained at 25±1° C. with a relative humidity of 45-65% and an air change rate in the cage of 60-fold per hour. They were kept under a 14 h light: 10 h dark, artificial light cycle. The animals were fed with autoclaved Teklad Global 19% Protein Extruded Diet (T.2019S.12) from Envigo RMS SARL and had access to sterile filtered and acidified (pH 2.5) tap water, which was changed twice weekly. Feed and water were provided ad libitum. […] Animals were routinely monitored twice daily on working days and daily on Saturdays and Sundays. […] Relative body weights (RBW) of individual animals were calculated by dividing the individual absolute body weight on day X (BWx) by the individual body weight on the day of randomization multiplied by 100%. The tumor volume was determined by a two-dimensional measurement with calipers on the day of randomization (day 0) and then twice weekly. Tumor volumes were calculated according to the following equation: Tumor Vol [mm^3]=1 [mm]×w^2 [mm^2]×0.5, where “1” is the length and “w” is width of the tumor. The relative volume of an individual tumor on day X (RTVx) was calculated by dividing the absolute individual tumor volume [mm^3] of the respective tumor on day X (Tx) by the absolute individual tumor volume of the same tumor on the day of randomization multiplied by 100%. […]
# T1 sequence (P02768 25-609): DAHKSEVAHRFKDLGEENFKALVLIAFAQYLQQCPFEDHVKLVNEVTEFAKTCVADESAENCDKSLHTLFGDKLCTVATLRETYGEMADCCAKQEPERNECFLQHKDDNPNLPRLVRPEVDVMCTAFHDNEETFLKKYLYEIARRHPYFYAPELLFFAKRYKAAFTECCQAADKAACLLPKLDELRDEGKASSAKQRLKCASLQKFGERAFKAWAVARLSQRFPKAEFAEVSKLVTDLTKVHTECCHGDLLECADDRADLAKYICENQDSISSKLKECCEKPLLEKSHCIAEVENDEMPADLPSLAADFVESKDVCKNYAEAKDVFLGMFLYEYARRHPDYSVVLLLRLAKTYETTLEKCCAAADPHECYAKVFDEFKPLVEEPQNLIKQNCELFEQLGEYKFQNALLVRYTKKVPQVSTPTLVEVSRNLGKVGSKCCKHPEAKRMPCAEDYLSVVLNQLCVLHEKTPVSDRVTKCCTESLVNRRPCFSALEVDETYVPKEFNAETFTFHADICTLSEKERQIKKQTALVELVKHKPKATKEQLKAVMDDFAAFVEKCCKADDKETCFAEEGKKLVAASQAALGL
smiles,measurement,setting,value
COc1cc2cc(c1Cl)N(C)C(=O)C[C@H](OC(=O)COc1cccc(/C(C)=N/NC(=O)c3ccc(NC(=O)CCCCCN4C(=O)C=CC4=O)cc3S(=O)(=O)O)c1)[C@]1(C)O[C@H]1[C@H](C)[C@@H]1C[C@@](O)(NC(=O)O1)[C@H](OC)/C=C/C=C(\C)C2 [Compound 31],fraction unbound,"albumin; blood, pooled human whole blood, 15 s",0.008
same,fraction unbound,"albumin; blood, pooled human whole blood, 8 min",0.007
same,fraction unbound,"albumin; plasma, pooled human plasma, 15 s",0.08
same,fraction unbound,"albumin; plasma, pooled human plasma, 8 min",0.014
same,antitumor activity,[1],partial and complete tumor regressions

# Source: patent publication US11572373B2, “Maytansinoid-based drug delivery systems” (LADRX CORPORATION, priority 2017, dated 2023)
